Assay results from the supplement of paper PMC10331698.
± gives the standard deviation of the averaged measurements.

Experiments:
Assay in all cases: level (log10 ratio to DMSO vehicle control); higher = higher biomarker level / cell amount than vehicle control
Conditions in all cases: in DMSO
[1] = compound: NC(=O)C(F)(F)C(F)(F)C(F)(F)C(F)(F)C(F)(F)C(F)(F)C(F)(F)F [Perfluorooctanamide]
Protocol: (§1)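 BioMAP Diversity Plus panel of 12 human primary cell co-culture systems (3C, 4H, LPS, SAg, BT, BF4T, BE3C, CASM3C, HDF3CGF, KF3CT, MyoF, Mphg). Compounds were added 1 h before stimulation and left for 24 h (MyoF 48 h; BT 72 h for soluble read-outs or 6 d for IgG). Biomarkers were read by ELISA, cytotoxicity by SRB, PBMC viability and proliferation by Alamar Blue. Each well value was divided by the mean of 8 DMSO control wells on the same plate and log10 transformed; duplicate blinded samples were tested at 4 concentrations.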

[2] = compound: C=CC(=O)OCCC(F)(F)C(F)(F)C(F)(F)C(F)(F)F [2-(Perfluorobutyl)ethyl acrylate]
Protocol: as §1

[3] = compound: N=C(N)C(F)(F)C(F)(F)C(F)(F)C(F)(F)C(F)(F)C(F)(F)C(F)(F)F [Perfluorooctanamidine]
Protocol: as §1

[4] = compound: O=C(O)CCC(F)(F)C(F)(F)C(F)(F)C(F)(F)C(F)(F)F [2H,2H,3H,3H-Perfluorooctanoic acid]
Protocol: as §1

[5] = compound: OCC(F)(F)C(F)(F)C(F)(F)C(F)(F)C(F)(F)C(F)F [1H,1H,7H-Dodecafluoro-1-heptanol]
Protocol: as §1

[6] = compound: CC(C)(C)C(=O)CC(=O)C(F)(F)C(F)(F)C(F)(F)F [(Heptafluorobutanoyl)pivaloylmethane]
Protocol: as §1

[7] = compound: O=C(O)C(F)(F)C(F)(F)C(F)(F)C(F)(F)C(F)(F)C(F)(F)C(F)(F)C(F)(F)Cl [9-Chloro-perfluorononanoic acid]
Protocol: as §1

Test System	level (log10) ([1]; 6700 nM)	level (log10) ([1]; 20000 nM)	level (log10) ([1]; 60000 nM)	level (log10) ([2]; 6700 nM)	level (log10) ([2]; 20000 nM)	level (log10) ([2]; 60000 nM)	level (log10) ([3]; 6700 nM)	level (log10) ([3]; 20000 nM)	level (log10) ([3]; 60000 nM)	level (log10) ([4]; 6700 nM)	level (log10) ([4]; 20000 nM)	level (log10) ([4]; 60000 nM)	level (log10) ([5]; 6700 nM)	level (log10) ([5]; 20000 nM)	level (log10) ([5]; 60000 nM)	level (log10) ([6]; 6700 nM)	level (log10) ([6]; 20000 nM)	level (log10) ([6]; 60000 nM)	level (log10) ([7]; 6700 nM)	level (log10) ([7]; 20000 nM)
CASM3C:CD87/uPAR	-0.009 ± 0.0014	-0.001 ± 0.024	0.0045 ± 0.0092	-0.006 ± 0.024	-0.027 ± 0.018	-0.023 ± 0.0042	-0.011 ± 0.016	-0.02 ± 0.037	-0.034	-0.008 ± 0.013	-0.011 ± 0.0071	-0.0305 ± 0.0092	-0.001 ± 0.016	0.0035 ± 0.021	-0.0055 ± 0.023	0.003 ± 0.02	-0.0235 ± 0.0064	-0.014 ± 0.023	-0.002	0.02 ± 0.0071
CASM3C:CD106/VCAM-1	-0.0245 ± 0.005	-0.014 ± 0.028	-0.004 ± 0.027	-0.0175 ± 0.023	-0.0475 ± 0.0078	-0.138 ± 0.016	-0.0165 ± 0.00071	-0.0195 ± 0.012	-0.032	0.0025 ± 0.019	0.0115 ± 0.044	0.01 ± 0.018	-0.0025 ± 0.022	-0.017 ± 0.0057	-0.017 ± 0.024	-0.006 ± 0.014	-0.004 ± 0.021	-0.002 ± 0.03	-0.029 ± 0.0014	-0.027 ± 0.016
CASM3C:CD141/Thrombomodulin	-0.0225 ± 0.021	0.0155 ± 0.0021	0.015 ± 0.0071	0.006 ± 0.018	-0.0125 ± 0.0064	0.052 ± 0.0014	-0.008 ± 0.016	-0.0205 ± 0.005	0.043	-0.01 ± 0.04	-0.036 ± 0.052	-0.014	0.0095 ± 0.052	0.0055 ± 0.0064	-0.0055 ± 0.047	-0.008 ± 0.033	-0.005 ± 0.018	-0.038 ± 0.0042	-0.0175 ± 0.022	-0.0225 ± 0.025
CASM3C:CD142/Tissue Factor	-0.0085 ± 0.046	-0.0095 ± 0.0064	-0.003 ± 0.051	-0.027 ± 0.011	-0.0455 ± 0.0092	-0.0585 ± 0.0092	-0.022 ± 0.024	-0.033 ± 0.0014	0.042	-0.0115 ± 0.022	-0.0505 ± 0.0092	-0.0095 ± 0.022	0.0235 ± 0.043	0.0015 ± 0.0064	-0.0185 ± 0.0035	-0.017 ± 0.0057	-0.0275 ± 0.0035	-0.037 ± 0.027	-0.017 ± 0.011	0.0055 ± 0.0064
CASM3C:CXCL8/IL-8	0.013 ± 0.025	0.013 ± 0.016	0.044 ± 0.014	-0.0045 ± 0.0064	-0.009 ± 0.0014	-0.028 ± 0.014	0.011 ± 0.017	0.0075 ± 0.0092	0.053	0.0055 ± 0.018	-0.0055 ± 0.0021	0.0175 ± 0.00071	0.0055 ± 0.012	0.005 ± 0.013	0.0055 ± 0.00071	-0.006 ± 0.0042	-0.018 ± 0.0028	-0.0045 ± 0.025	0.0045 ± 0.00071	0.0175 ± 0.016
CASM3C:CXCL9/MIG	-0.0205 ± 0.037	0.0135 ± 0.0021	0.0365 ± 0.032	-0.0005 ± 0.012	-0.025 ± 0.0071	-0.121 ± 0.014	-0.005 ± 0.013	-0.017 ± 0.024	0.069	-0.0185 ± 0.00071	-0.0285 ± 0.0092	0.0045 ± 0.042	0.002 ± 0.0071	0.007 ± 0.0014	0.0195 ± 0.005	-0.004 ± 0.0014	-0.0085 ± 0.00071	0.006 ± 0.011	-0.0355 ± 0.0035	-0.0235 ± 0.013
CASM3C:HLA-DR	0.003 ± 0.041	0.0125 ± 0.0092	0.0005 ± 0.011	-0.0245 ± 0.025	-0.017 ± 0.014	-0.0205 ± 0.011	-0.0335 ± 0.016	-0.0655 ± 0.011	-0.022	0.004 ± 0.0057	-0.026 ± 0.021	-0.014	-0.0045 ± 0.03	0.0075 ± 0.0064	0.0045 ± 0.0021	0.011 ± 0.0014	0.0005 ± 0.0092	0.0255 ± 0.0035	0.0085 ± 0.0035	0.0015 ± 0.012
CASM3C:IL-6	0.0435 ± 0.036	-0.0225 ± 0.015	0.008 ± 0.023	-0.023 ± 0.0014	-0.0425 ± 0.0021	-0.076 ± 0.034	-0.046 ± 0.023	-0.041 ± 0.035	0.041	-0.0035 ± 0.0064	-0.008 ± 0.0057	0.0145 ± 0.05	-0.0165 ± 0.035	-0.024 ± 0.021	0.008 ± 0.028	-0.0155 ± 0.0064	-0.0375 ± 0.018	-0.0145 ± 0.028	-0.0115 ± 0.00071	-0.0325 ± 0.019
CASM3C:LDLR	-0.0175 ± 0.0035	0.0135 ± 0.026	0.031 ± 0.027	-0.013 ± 0.0099	-0.0105 ± 0.0021	0.01 ± 0.042	0.012 ± 0.013	0.036 ± 0.0085	0.108	0.0005 ± 0.0021	-0.001 ± 0.018	0.0095 ± 0.047	0.0045 ± 0.05	-0.0135 ± 0.028	0.014 ± 0.024	-0.004 ± 0.017	-0.0085 ± 0.0035	-0.0075 ± 0.018	-0.011 ± 0.013	-0.0065 ± 0.0021
CASM3C:M-CSF	-0.0055 ± 0.04	0.0035 ± 0.03	0.027 ± 0.048	-0.0165 ± 0.019	-0.0355 ± 0.022	-0.021 ± 0.044	-0.0095 ± 0.021	-0.025 ± 0.028	0.034	-0.006 ± 0.0028	-0.0035 ± 0.0064	0.0185 ± 0.06	-0.0045 ± 0.0035	-0.0185 ± 0.0035	0.0145 ± 0.039	0.002 ± 0.017	-0.0165 ± 0.013	-0.016 ± 0.014	-0.0235 ± 0.0035	-0.0315 ± 0.011
CASM3C:PAI-I	-0.0015 ± 0.0064	0.004 ± 0.0057	-0.0015 ± 0.016	0.0105 ± 0.021	-0.0035 ± 0.011	0 ± 0.013	0.0055 ± 0.012	0.0015 ± 0.0064	0.022	-0.0015 ± 0.013	-0.0045 ± 0.019	-0.012 ± 0.0099	0.004 ± 0.0057	-0.0005 ± 0.0064	0.0045 ± 0.011	-0.004 ± 0.0028	-0.0035 ± 0.0064	0.003 ± 0.0099	-0.002 ± 0.0071	0.0065 ± 0.0078
CASM3C:Proliferation	-0.0135 ± 0.005	-0.036 ± 0.027	-0.0415 ± 0.015	-0.0375 ± 0.06	-0.0315 ± 0.069	-0.123 ± 0.084	0.0185 ± 0.0078	0.0085 ± 0.0035	-0.062	-0.014 ± 0.045	0.002 ± 0.0014	0.011 ± 0.04	0.004 ± 0.0042	-0.006 ± 0.025	-0.018 ± 0.013	-0.032 ± 0.03	0.0195 ± 0.0092	-0.017 ± 0.037	-0.016 ± 0.02	0.004 ± 0.025
CASM3C:SRB	0 ± 0.0071	-0.002 ± 0.0014	-0.003 ± 0.0014	0.0015 ± 0.0021	0.0055 ± 0.005	0.0005 ± 0.00071	-0.0015 ± 0.011	-0.0105 ± 0.00071	-0.018	-0.0045 ± 0.015	-0.0105 ± 0.00071	-0.0105 ± 0.0021	-0.0045 ± 0.00071	-0.006 ± 0.0028	-0.0015 ± 0.0021	0.01 ± 0.0014	-0.002 ± 0.0014	0.0035 ± 0.00071	-0.001 ± 0.0028	0.0045 ± 0.0078
CASM3C:Serum Amyloid A	-0.034 ± 0.044	-0.0465 ± 0.069	-0.062 ± 0.051	-0.007	-0.0175 ± 0.016	-0.0305 ± 0.08	0.001 ± 0.0014	-0.0085 ± 0.018	0.053	-0.0045 ± 0.0078	-0.0195 ± 0.0092	-0.0495 ± 0.028	-0.019 ± 0.045	-0.01 ± 0.031	-0.0275 ± 0.037	0.014 ± 0.035	0.001 ± 0.064	-0.009 ± 0.024	0.001 ± 0.016	0.0285 ± 0.011
HDF3CGF:CCL2/MCP-1	-0.023 ± 0.0057	-0.0145 ± 0.022	-0.033 ± 0.0014	-0.032 ± 0.0085	-0.059 ± 0.025	-0.117 ± 0.054	-0.0075 ± 0.0035	-0.005 ± 0.018	-0.068	0.0015 ± 0.029	0.003 ± 0.0085	0.0065 ± 0.0078	0.012 ± 0.024	0.0105 ± 0.03	0.018 ± 0.017	-0.0285 ± 0.016	0.027	-0.0065 ± 0.025	0.0205 ± 0.022	-0.013 ± 0.021
